# Values of other authors in patent US20110045130A1, “BIOACTIVE PEPTIDE PRODUCTION” (priority 2007, published 2011).
# Legend:
# [1] = system: spontaneously hypertensive rats; conditions: tripeptides derived from lactic acid bacteria fermented milk
# [2] = molecular target: angiotensin converting enzyme (ACE) (Homo sapiens, UniProt P12821); conditions: in vitro effect on ACE activity; relatively low IC50 values
# Sequence of angiotensin converting enzyme (ACE) (P12821 30-1306, species assumed): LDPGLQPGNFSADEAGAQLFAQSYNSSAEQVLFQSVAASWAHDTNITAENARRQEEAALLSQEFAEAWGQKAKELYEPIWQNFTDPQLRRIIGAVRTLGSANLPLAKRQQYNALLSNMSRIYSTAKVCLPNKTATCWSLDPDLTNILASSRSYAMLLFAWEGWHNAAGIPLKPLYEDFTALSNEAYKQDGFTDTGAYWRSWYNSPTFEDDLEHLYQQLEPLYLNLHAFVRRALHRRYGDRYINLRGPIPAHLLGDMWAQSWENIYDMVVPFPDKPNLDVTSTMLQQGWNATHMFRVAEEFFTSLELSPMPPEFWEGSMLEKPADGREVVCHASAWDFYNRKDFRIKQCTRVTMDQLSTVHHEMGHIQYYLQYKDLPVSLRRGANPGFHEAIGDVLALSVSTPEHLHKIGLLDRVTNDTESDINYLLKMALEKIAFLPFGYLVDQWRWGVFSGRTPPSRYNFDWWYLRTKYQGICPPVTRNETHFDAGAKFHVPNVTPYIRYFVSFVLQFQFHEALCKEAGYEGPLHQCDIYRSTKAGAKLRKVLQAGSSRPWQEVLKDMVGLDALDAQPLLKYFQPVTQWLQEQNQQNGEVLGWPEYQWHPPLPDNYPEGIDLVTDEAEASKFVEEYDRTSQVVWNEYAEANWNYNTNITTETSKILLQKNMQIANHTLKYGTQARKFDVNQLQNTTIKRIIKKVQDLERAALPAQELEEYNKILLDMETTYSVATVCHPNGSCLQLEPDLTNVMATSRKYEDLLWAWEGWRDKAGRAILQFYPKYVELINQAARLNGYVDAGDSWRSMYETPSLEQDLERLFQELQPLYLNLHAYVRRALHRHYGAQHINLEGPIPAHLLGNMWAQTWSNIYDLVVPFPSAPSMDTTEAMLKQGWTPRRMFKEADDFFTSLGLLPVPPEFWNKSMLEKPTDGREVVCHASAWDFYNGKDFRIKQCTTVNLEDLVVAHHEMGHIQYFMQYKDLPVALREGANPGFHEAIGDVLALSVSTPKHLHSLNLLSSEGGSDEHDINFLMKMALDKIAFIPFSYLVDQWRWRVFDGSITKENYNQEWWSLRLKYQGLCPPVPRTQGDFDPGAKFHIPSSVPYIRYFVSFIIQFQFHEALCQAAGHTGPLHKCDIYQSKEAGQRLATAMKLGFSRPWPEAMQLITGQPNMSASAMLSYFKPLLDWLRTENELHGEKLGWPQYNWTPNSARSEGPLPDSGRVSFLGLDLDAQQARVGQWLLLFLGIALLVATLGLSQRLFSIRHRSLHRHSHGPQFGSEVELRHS
ACE inhibiting activity [2],Substance,antihypertensive effects [1]
Strong ACE inhibiting activities,Ile-Pro-Pro [IPP],confirmed
Strong ACE inhibiting activities,Leu-Pro-Pro [LPP],–

Substance,ACE inhibiting activity [2],antihypertensive effects [1]
Val-Pro-Pro [VPP],Strong ACE inhibiting activities,confirmed
